“Also recorded” adds a separate entry of the source. Marks after values point to notes of the source that are not given here.
Legend:
[1] = tested on: leukemic stem cells (LSCs); assay: Secondary xenograft limiting dilution assay (LDA); type: in vivo, NOD/SCID mice; settings: for Fold reduction of LSC frequency by Compound D: relative to vehicle; for No. mice engrafted/No. mice transplanted: from Compound D-treated primary mice
Procedure: Secondary xenograft limiting dilution assay: To determine whether Compound D targeted leukemia stem cells with self-renewal ability, which are considered to contribute to leukemia progression, therapy-resistance, and relapse, secondary transplantation was performed using LDA. Limiting dilution assays are designed to define an unknown frequency of LSCs in the total leukemia graft of primary mice. LDA analysis in secondary transplantation will allow quantitative determination whether Compound D targets LSCs with self-renewal ability in primary mice. For this, multiple cell doses were used for secondary transplant to achieve both a positive response (engrafted mice at high cell doses) and a negative response (non-engrafted mice at lowest cell dose). Four different AML cell doses for each treated group (1 million, 500,000, 50,000 and 2000 cells/mouse) with 5 mice per cell dose, totally 40 mice for each AML graft sample. For any sample that was considered aggressive, LDA was performed with lower cell doses. The frequency of LSCs was analyzed using the Walter and Eliza Hall Institute (WEHI) bioinformatics extreme limiting dilution analysis (ELDA) software (bioinf.wehi.edu.au).
(§1) For secondary transplant NOD/SCID mice were sublethally irradiated (275 cGy) and pretreated with anti-CD122 antibody (200 μg/mouse) to deplete residual host natural killer cells. On the day of transplantation, viably frozen cells harvested from the vehicle- or Compound D-treated primary mice were thawed, counted, mouse-cell depleted (Mouse Cell Depletion Kit, Miltenyi Biotec, USA), and transplanted intrafemorally into the pretreated secondary mice at limiting doses described above. For secondary transplant without LDA, thawed cells were not depleted of mouse cells before transplantation. At 12 weeks post secondary transplantation, mice were euthanized, and bone marrow was collected and analyzed.
Limiting dilution assay: Limiting dilution assays were used to define the frequency of leukemia stem cells in the total leukemia graft of the primary mice. Therefore, analysis of LDA in secondary transplantation will allow quantitative determination whether Compound D targets leukemia stem cells with self-renewal ability in primary mice. For this, multiple cell doses were used for secondary transplant to achieve both a positive response (engrafted mice at high cell doses) and a negative response (non-engrafted mice at lowest cell dose). Four different AML cell doses for each treated group were used (1 million, 500,000, 50,000 and 2000 cells/mouse) with 5 mice per cell dose, totally 40 mice for each leukemia graft sample. For any sample that was considered aggressive, LDA was performed with lower cell doses. The frequency of LSCs was analyzed using the Walter and Eliza Hall Institute (WEHI) bioinformatics extreme limiting dilution analysis (ELDA) software (bioinfwehi.edu.au).
Intrafemoral transplantation: One day prior to transplantation, NOD/SCID mice were sublethally irradiated (275 cGy) and pretreated with anti-CD122 antibody (200m/mouse) to deplete residual host natural killer cells. On the day of transplantation, viably frozen cells harvested from combined vehicle- or Compound D-treated (2.5 mg/kg intraperitoneally twice daily for 14 days, Section 6.1) primary mice were thawed, counted, mouse cell depleted, and transplanted intrafemorally into the pretreated secondary mice at limiting doses in a total volume of 30 μl. For the Compound D-treated samples with low human AML engraftment 25%), cells from both RF and BM were combined and 2 rounds of mouse depletion were performed to ensure a high human AML cell purity. […] Mouse cell depletion was performed following the instructions provided by Miltenyi Biotec (Mouse Cell Depletion Kit, catalogue number 130-104-694, Miltenyi Biotec, Germany). […]

[2] = tested on: leukemic stem cells (LSCs); assay: Secondary transplantation without limiting dilution; type: in vivo, NOD/SCID mice
Procedure: as §1
To determine if quiescent LSCs are resistant to Compound D, secondary transplantation of AML cells of high responders was performed. High responders were identified as samples in which leukemia cells were almost undetectable in the primary mouse bone marrow following Compound D treatment. If rare quiescent LSCs are maintained in the residual leukemia cells following Compound D dosing, then those quiescent LSCs may become active and repopulate secondary mice after undergoing serial transplantations. Four LSC17 high samples that had AML blasts eradicated by Compound D treatment were selected for secondary transplantation (see Table 9) by injecting total combined bone marrow cells collected from 5 primary mice treated with either vehicle or Compound D into 5 secondary mice. In this way cells collected from one primary mouse were injected into one secondary mouse without any cell dose dilution or losing any residual cells. […] Cells from AML Patient 150238 harvested from vehicle-treated primary mice repopulated only one of 5 secondary mice.

[3] = tested on: normal cord blood-derived human graft; set-up: species or system NOD/SCID mice; settings: mouse, in vivo
Procedure: Normal cord blood experiment was carried out similar to what has been described as above but using CD34+ cells isolated from normal cord blood. Two or three normal donors were pulled together to generate enough cells for each of the CB engraftments, termed CB1 and CB2.
Compound D toxicity on normal hematopoietic cells was investigated using CB samples. Mice were transplanted with two different CB samples (CB1 and CB2) and dosed with 2.5 mg/kg Compound D or vehicle control BID intraperitoneally. Flow cytometric analyses from a representative mouse from the vehicle- and Compound D-treated groups are shown in FIG. 8A and FIG. 8B, respectively.

O=C1CCC(N2Cc3cc(CNC(=O)C(F)(F)c4ccc(Cl)cc4)ccc3C2=O)C(=O)N1 (stereo not shown) [Compound D, 2-(4-chlorophenyl)-N-((2-(2,6-dioxopiperidin-3-yl)-1-oxoisoindolin-5-yl)methyl)-2,2-difluoroacetamide]
AML engraftment in secondary mice ([1]; AML 90191, cells from Compound D primary-treated mice, about 12 weeks): no AML engraftment
leukemia graft in secondary mice vs vehicle-treated cells ([1]; AML 110500): much lower leukemia graft
LSC frequency, vehicle- vs Compound D-treated primary mice ([1]; AML 120860, non-injected BM data): no difference in LSC frequency; also recorded: no difference for LSC frequency
LSC frequency increase following treatment ([1]; AML Patient 110484): 1.6 fold
LSC frequency increase following treatment ([1]; AML Patient 120846): 1.8 fold
LSC frequency increase following treatment ([1]; AML Patient 120860): 1.3 fold
LSC frequency increase following treatment ([1]; AML Patient 130695): 12.6 fold
LSC frequency ([1]; AML Patient 130926 (responder)): did not reduce LSC frequency
LSC frequency (1/total number), Compound D ([1]; Patient 598, cells from RF of treated primary mice): 675569 1/total number
Fold reduction of LSC frequency by Compound D ([1]; Patient 598): 2.1 fold
LSC frequency (1/total number), Compound D ([1]; Patient 90191, cells from RF + BM of treated primary mice): Not engrafted
LSC frequency (1/total number), Compound D ([1]; Patient 100348, cells from RF + BM of treated primary mice): 923814 1/total number
Fold reduction of LSC frequency by Compound D ([1]; Patient 100348): 4.0 fold
LSC frequency (1/total number), Compound D ([1]; Patient 110484, cells from RF of treated primary mice): 1153831 1/total number
Fold reduction of LSC frequency by Compound D ([1]; Patient 110484, negative sign = increase): −1.6 ^a fold
LSC frequency (1/total number), Compound D ([1]; Patient 110500, cells from RF of treated primary mice): 356239 1/total number
LSC frequency (1/total number), Compound D ([1]; Patient 120791, cells from RF + BM of treated primary mice): Not engrafted
LSC frequency (1/total number), Compound D ([1]; Patient 120846, cells from RF of treated primary mice): 14523 1/total number
Fold reduction of LSC frequency by Compound D ([1]; Patient 120846, negative sign = increase): −1.8 ^a fold
LSC frequency (1/total number), Compound D ([1]; Patient 120860, cells from BM of treated primary mice): 65626 1/total number
Fold reduction of LSC frequency by Compound D ([1]; Patient 120860, negative sign = increase): −1.3 ^a fold
LSC frequency (1/total number), Compound D ([1]; Patient 120899, cells from BM of treated primary mice): 27120 1/total number
Fold reduction of LSC frequency by Compound D ([1]; Patient 120899): 4.0 fold
LSC frequency (1/total number), Compound D ([1]; Patient 121020, cells from RF+BM of treated primary mice): 7562084 1/total number
Fold reduction of LSC frequency by Compound D ([1]; Patient 121020): 1.5 fold
No. mice engrafted/No. mice transplanted ([1]; Patient 130578, 5000 cells transplanted/mouse): 0/5
No. mice engrafted/No. mice transplanted ([1]; Patient 130578, 20000 cells transplanted/mouse): 0/5
No. mice engrafted/No. mice transplanted ([1]; Patient 130578, 50000 cells transplanted/mouse): 2/5
No. mice engrafted/No. mice transplanted ([1]; Patient 130578, 120000 cells transplanted/mouse): 2/3
Fold reduction of LSC frequency by Compound D ([1]; Patient 130578): 9.4 fold
LSC frequency (1/total number), Compound D ([1]; Patient 130695, cells from RF of treated primary mice): 36696 1/total number
Fold reduction of LSC frequency by Compound D ([1]; Patient 130695, negative sign = increase): −12.6*** ^a fold
LSC frequency (1/total number), Compound D ([1]; Patient 130712, cells from BM of treated primary mice): 758064 1/total number
Fold reduction of LSC frequency by Compound D ([1]; Patient 130712): 2.7 fold
LSC frequency (1/total number), Compound D ([1]; Patient 130926, cells from RF + BM of treated primary mice): 1207241 1/total number
Fold reduction of LSC frequency by Compound D ([1]; Patient 130926): 1.0 fold
LSC frequency (1/total number), Compound D ([1]; Patient 140171, cells from RF + BM of treated primary mice): Not engrafted
responsive leukemia samples with LSCs targeted ([1]; mouse, in vivo): 6 out of 10 samples
repopulation of secondary mice ([2]; AML 0590 and AML 110102, cells from Compound D-treated primary mice): did not repopulate the secondary mice
LSC Status in Secondary Mice Injected with Compound D Treated Primary Cells ([2]; Patient 110625): repopulated the bone marrow of one secondary mouse; also recorded: LSC in BM
No. mice with LSC engrafted/No. injected mice in the group ([2]; Patient 110625, cells from Compound D-treated primary mice): 1/5 (in BM
LSC Status in Secondary Mice Injected with Compound D Treated Primary Cells ([2]; Patient 130311): did not proliferate/repopulate any of the secondary mice; also recorded: not engrafted
No. mice with LSC engrafted/No. injected mice in the group ([2]; Patient 130311, cells from Compound D-treated primary mice): 0/4
LSC Status in Secondary Mice Injected with Compound D Treated Primary Cells ([2]; Patient 130826): did not proliferate/repopulate any of the secondary mice; also recorded: not engrafted
No. mice with LSC engrafted/No. injected mice in the group ([2]; Patient 130826, cells from Compound D-treated primary mice): 0/5
LSC Status in Secondary Mice Injected with Compound D Treated Primary Cells ([2]; Patient 150238): did not repopulate any secondary mice; also recorded: no LSC
No. mice with LSC engrafted/No. injected mice in the group ([2]; Patient 150238, cells from Compound D-treated primary mice): 0/5
human graft remaining after treatment ([3]; NOD/SCID, 4 weeks): 5-10%
percentage of CD34+ cells ([3]; NOD/SCID, 4 weeks): did not decrease the percentage of CD34+ cells
CD34+CD19+ primitive lymphoid cells [3]: significantly decreased
CD34+CD33+ primitive myeloid cells [3]: not targeted
absolute number of CD34+ cells [3]: significantly reduced
number of CD19+ lymphocytes [3]: significantly decreased
percentages of CD34+CD38− primary cells [3]: not specifically targeted
proportion of CD33+ myeloid cells [3]: increased
